Laboratory results: BindingDB's records for doi:10.1021/jm031016d (University of Athens, 2004)

Legend:
[1] = biological target: T1, Cyclin-dependent kinase 5 activator 1 [99-307] (Homo sapiens, UniProt Q00535); test: Kinase Inhibition Assay; details: 30 °C
T1 construct: 99-307

[2] = biological target: Cyclin-dependent kinase 1/G2/mitotic-specific cyclin-B (Marthasterias glacialis, UniProt P15206+Q9DGD3); test: Kinase Inhibition Assay; details: 30 °C
[3] = biological target: Glycogen synthase kinase-3 alpha/beta (Sus scrofa); test: Kinase activities were assayed in buffers containing substrate, enzyme, and inhibitor at 30 °C in the presence of 15 uM ATP/ [gamma-32P] ATP. 32P incorporation was measured with a scintillation counter. The IC50 is the inhibitor concentration, which inhibits 50% of kinase activity that catalyzes the transfer of the terminal phosphate from 32P l

T1 sequence (Q15078 99-307): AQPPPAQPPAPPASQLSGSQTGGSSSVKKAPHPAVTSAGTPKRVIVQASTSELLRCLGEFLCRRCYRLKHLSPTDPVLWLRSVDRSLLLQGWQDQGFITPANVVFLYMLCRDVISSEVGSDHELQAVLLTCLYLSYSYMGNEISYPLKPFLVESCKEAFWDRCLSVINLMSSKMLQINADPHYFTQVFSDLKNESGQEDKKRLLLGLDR
T1 sequence (Q00535 whole entry): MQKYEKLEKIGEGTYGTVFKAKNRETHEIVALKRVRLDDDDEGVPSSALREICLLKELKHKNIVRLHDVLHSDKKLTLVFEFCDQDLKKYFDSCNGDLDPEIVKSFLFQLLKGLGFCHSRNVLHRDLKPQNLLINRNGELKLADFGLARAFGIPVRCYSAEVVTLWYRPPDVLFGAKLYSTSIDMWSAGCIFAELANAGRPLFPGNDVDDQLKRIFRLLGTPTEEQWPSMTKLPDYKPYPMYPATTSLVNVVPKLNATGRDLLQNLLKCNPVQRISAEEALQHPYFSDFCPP
Sequence of Cyclin-dependent kinase 1/G2/mitotic-specific cyclin-B (Q9DGD3 whole entry): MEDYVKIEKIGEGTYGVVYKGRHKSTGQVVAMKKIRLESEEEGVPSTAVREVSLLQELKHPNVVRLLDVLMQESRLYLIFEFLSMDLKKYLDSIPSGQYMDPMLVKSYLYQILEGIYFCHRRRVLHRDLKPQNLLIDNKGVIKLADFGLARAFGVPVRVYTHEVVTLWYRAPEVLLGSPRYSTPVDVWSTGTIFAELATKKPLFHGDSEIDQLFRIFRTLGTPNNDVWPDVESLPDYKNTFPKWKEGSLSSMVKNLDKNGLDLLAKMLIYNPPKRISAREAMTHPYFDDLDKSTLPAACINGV
Sequence of Cyclin-dependent kinase 1/G2/mitotic-specific cyclin-B (P15206 whole entry): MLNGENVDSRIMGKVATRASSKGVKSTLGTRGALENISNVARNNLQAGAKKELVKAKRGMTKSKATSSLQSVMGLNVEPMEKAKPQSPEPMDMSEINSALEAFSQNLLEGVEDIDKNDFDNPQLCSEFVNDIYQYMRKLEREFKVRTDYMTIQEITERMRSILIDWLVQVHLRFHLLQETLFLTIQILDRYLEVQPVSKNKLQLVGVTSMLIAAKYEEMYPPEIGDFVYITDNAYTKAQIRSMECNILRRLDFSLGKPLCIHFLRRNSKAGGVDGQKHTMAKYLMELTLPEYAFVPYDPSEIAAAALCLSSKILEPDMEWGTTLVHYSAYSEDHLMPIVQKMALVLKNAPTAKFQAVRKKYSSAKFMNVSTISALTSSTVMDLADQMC

SMILES | IC50 [1] | IC50 [2] | IC50 [3] | IC50 ([2]; pH 7.2)
CN1C(=O)/C(=C2\Nc3ccccc3C2=O)c2ccccc21 [1-methyl-3-[(2Z)-3-oxo-2,3-dihydro-1H-indol-2-ylidene]-2,3-dihydro-1H-indol-2-one] | > 100000 nM | > 100000 nM | > 100000 nM | –
CN1C(=O)C(c2[nH]c3ccccc3c2N=O)c2ccccc21 (stereo not drawn) [3-[(2Z,3E)-3-(hydroxyimino)-2,3-dihydro-1H-indol-2-ylidene]-1-methyl-2,3-dihydro-1H-indol-2-one] | > 100000 nM | 73000 nM | > 100000 nM | –
CO/N=C1/C(=C2/C(=O)Nc3ccccc32)Nc2ccccc21 [3-[(2Z,3E)-3-(methoxyimino)-2,3-dihydro-1H-indol-2-ylidene]-2,3-dihydro-1H-indol-2-one] | 400 nM | – | – | –
O=C1Nc2cccc(Cl)c2/C1=C1/Nc2ccccc2C1=O [4-chloro-3-[(2Z)-3-oxo-2,3-dihydro-1H-indol-2-ylidene]-2,3-dihydro-1H-indol-2-one] | 10000 nM | 10000 nM | > 100000 nM | –
O=C1Nc2cc(Br)c([N+](=O)[O-])cc2[C+]1c1[nH]c2ccccc2c1[O-] [6-Bromo-5-nitroindirubin] | > 100000 nM | > 100000 nM | 100 nM | –
O=C1Nc2cc(Br)ccc2/C1=C1/Nc2ccccc2C1=O [6-bromo-3-[(2Z)-3-oxo-2,3-dihydro-1H-indol-2-ylidene]-2,3-dihydro-1H-indol-2-one] | 53000 nM | – | – | –
Cc1cc2c(cc1Br)NC(=O)C2c1[nH]c2ccccc2c1N=O (stereo not drawn) [6-bromo-3-[(2Z,3E)-3-(hydroxyimino)-2,3-dihydro-1H-indol-2-ylidene]-5-methyl-2,3-dihydro-1H-indol-2-one] | 130 nM | – | – | –
O=Nc1c(C2C(=O)Nc3cc(Br)c([N+](=O)[O-])cc32)[nH]c2ccccc12 (stereo not drawn) [6-bromo-3-[(2Z,3E)-3-(hydroxyimino)-2,3-dihydro-1H-indol-2-ylidene]-5-nitro-2,3-dihydro-1H-indol-2-one] | 150 nM | – | – | –
O=Nc1c(C2C(=O)Nc3cc(Br)ccc32)[nH]c2cc(Br)ccc12 (stereo not drawn) [6-bromo-3-[(2Z,3E)-6-bromo-3-(hydroxyimino)-2,3-dihydro-1H-indol-2-ylidene]-2,3-dihydro-1H-indol-2-one] | 1300 nM | – | 120 nM | 17000 nM
Cc1cc2c(cc1Br)NC(=O)/C2=C1\Nc2ccccc2C1=O [6-bromo-5-methylindirubin] | 60000 nM | 30000 nM | 25 nM | –
O=C1Nc2cc(Cl)ccc2/C1=C1/Nc2ccccc2C1=O [6-chloro-3-[(2Z)-3-oxo-2,3-dihydro-1H-indol-2-ylidene]-2,3-dihydro-1H-indol-2-one] | > 100000 nM | – | 140 nM | > 100000 nM
O=Nc1c(C2C(=O)Nc3cc(Cl)ccc32)[nH]c2ccccc12 (stereo not drawn) [6-chloro-3-[(2Z,3E)-3-(hydroxyimino)-2,3-dihydro-1H-indol-2-ylidene]-2,3-dihydro-1H-indol-2-one] | 100 nM | – | 20 nM | 650 nM
CC(=O)ON=C1C(=C2C(=O)Nc3cc(Cl)ccc32)Nc2ccccc21 [6-chloroindirubin-3-acetoxime] | 200 nM | – | 17 nM | 30000 nM
O=Nc1c(C2C(=O)Nc3cc(F)ccc32)[nH]c2ccccc12 (stereo not drawn) [6-fluoro-3-[(2Z,3E)-3-(hydroxyimino)-2,3-dihydro-1H-indol-2-ylidene]-2,3-dihydro-1H-indol-2-one] | 150 nM | 320 nM | 130 nM | –
O=C1Nc2cc(F)ccc2/C1=C1/Nc2ccccc2C1=O [6-fluoroindirubin] | 1000 nM | – | – | –
O=Nc1c(C2C(=O)Nc3cc(I)ccc32)[nH]c2ccccc12 (stereo not drawn) [6-iodoindirubin-3-oxime] | 300 nM | – | – | –
O=C1Nc2cc(I)ccc2/C1=C1/Nc2ccccc2C1=O [6-iodoindirubin] | 5300 nM | – | 55 nM | 1600 nM
C=Cc1ccc2c(c1)NC(=O)C2c1[nH]c2ccccc2c1N=O (stereo not drawn) [6-vinylindirubin-3-oxime] | 420 nM | 1200 nM | 60 nM | –
C=Cc1ccc2c(c1)NC(=O)/C2=C1\Nc2ccccc2C1=O [6-vinylindirubin] | 2400 nM | 4200 nM | 240 nM | –
O=C1Nc2cc(Cl)c(Cl)cc2/C1=C1/Nc2ccccc2C1=O [(2 Z)-5,6-Dichloroindirubin] | 60000 nM | 45000 nM | 30 nM | –
O=C1Nc2cc(Br)ccc2/C1=C1/Nc2cc(Br)ccc2C1=O [(2 Z)-6,6 -Dibromoindirubin] | > 100000 nM | – | 4500 nM | > 100000 nM
CN1C(=O)/C(=C2\Nc3ccccc3C2=O)c2ccc(Br)cc21 [(2 Z)-6-Bromo-1-methylindirubin] | > 100000 nM | – | > 100000 nM | > 100000 nM
CN1C(=O)C(c2[nH]c3ccccc3c2N=O)c2ccc(Br)cc21 (stereo not drawn) [(2 Z,3 E)-6-Bromo-1-methylindirubin-3-oxime] | > 100000 nM | – | > 100000 nM | 92000 nM
CO/N=C1/C(=C2/C(=O)Nc3cc(Br)ccc32)Nc2ccccc21 [(2 Z,3 E)-6-Bromoindirubin-3-methoxime] | 2200 nM | – | 30 nM | 3700 nM
CC(=O)ON=C1C(=C2C(=O)Nc3cc(F)ccc32)Nc2ccccc21 [(2 Z,3 E)-6-Fluoroindirubin-3-acetoxime] | 300 nM | – | – | –
CC(=O)ON=C1C(=C2C(=O)Nc3cc(I)ccc32)Nc2ccccc21 [(2 Z,3 E)-6-Iodoindirubin-3-acetoxime] | 1300 nM | 2200 nM | 13 nM | –
CC(=O)ON=C1C(=C2C(=O)Nc3ccccc32)Nc2ccccc21 [[(3E)-2-[(3Z)-2-oxo-2,3-dihydro-1H-indol-3-ylidene]-2,3-dihydro-1H-indol-3-ylidene]amino acetate] | 700 nM | – | – | –
C=Cc1ccc2c(c1)NC(=O)C2=C1Nc2ccccc2C1=NOC(C)=O [[(3E)-2-[(3Z)-6-ethenyl-2-oxo-2,3-dihydro-1H-indol-3-ylidene]-2,3-dihydro-1H-indol-3-ylidene]amino acetate] | 400 nM | 1600 nM | 65 nM | –
